The record followed here is article PMC6496959 (Journal of medicinal chemistry, 2018).

The first data set relates to MDCK cells.
Assay: not given
The note with it: minimal change in cell morphology after 48 h incubation.
Turning to `NC12CC3CC(CC(C3)C1)C2` [Amantadine, amantadine, reference compound], the “MCC (minimum cytotoxic concentration)” value was above 100 µM.
Same read-out and setting: the value for `C[C@H]1[C@H](NCc2cncnc2)C[C@H]2C[C@@H]1C2(C)C` [Compound 1] was above 100 µM.
As for `C[C@H]1[C@H](NCc2cnccn2)C[C@H]2C[C@@H]1C2(C)C` [Compound 2], the “MCC (minimum cytotoxic concentration)” value was above 100 µM.
Take `Cc1n[nH]cc1CN[C@@H]1C[C@H]2C[C@@H]([C@H]1C)C2(C)C` [Compound 3]: the “MCC (minimum cytotoxic concentration)” value is above 100 µM.
Consider `C[C@H]1[C@H](NCc2ccoc2)C[C@H]2C[C@@H]1C2(C)C` [Compound 4], for which the “MCC (minimum cytotoxic concentration)” value is above 100 µM.
Turning to `C[C@H]1[C@H](NCc2ccco2)C[C@H]2C[C@@H]1C2(C)C` [Compound 5], the “MCC (minimum cytotoxic concentration)” value was determined as 50 µM.
On to `C[C@H]1[C@H](NCc2ccsc2)C[C@H]2C[C@@H]1C2(C)C` [Compound 6], for which the “MCC (minimum cytotoxic concentration)” value came out at 50 µM.
For the compound `C[C@H]1[C@H](NCc2cccs2)C[C@H]2C[C@@H]1C2(C)C` [Compound 7], the “MCC (minimum cytotoxic concentration)” value worked out at 25 µM.
As for `C[C@H]1[C@H](NCc2nccs2)C[C@H]2C[C@@H]1C2(C)C` [Compound 8], the “MCC (minimum cytotoxic concentration)” value was above 100 µM.
On the same count and under the same terms, then `C[C@H]1[C@H](NCc2cncs2)C[C@H]2C[C@@H]1C2(C)C` [Compound 9], with above 100 µM.
Consider `Cc1csc(CN[C@@H]2C[C@H]3C[C@@H]([C@H]2C)C3(C)C)n1` [Compound 10], for which the “MCC (minimum cytotoxic concentration)” value was above 100 µM.
As for `Cc1ccsc1CN[C@@H]1C[C@H]2C[C@@H]([C@H]1C)C2(C)C` [Compound 11], the “MCC (minimum cytotoxic concentration)” value was determined as 10 µM.
Same read-out and setting: the value for `CCc1ccsc1CN[C@@H]1C[C@H]2C[C@@H]([C@H]1C)C2(C)C` [Compound 12] was 25 µM.
For the compound `C[C@H]1[C@H](NCc2sccc2Br)C[C@H]2C[C@@H]1C2(C)C` [Compound 13], the “MCC (minimum cytotoxic concentration)” value is 50 µM.
In the case of `CCCc1ccsc1CN[C@@H]1C[C@H]2C[C@@H]([C@H]1C)C2(C)C` [Compound 14], the “MCC (minimum cytotoxic concentration)” value is 50 µM.
Take `CCCCc1ccsc1CN[C@@H]1C[C@H]2C[C@@H]([C@H]1C)C2(C)C` [Compound 15]: the “MCC (minimum cytotoxic concentration)” value is 25 µM.
The same measure, in the same setting: the value for `CCOc1ccsc1CN[C@@H]1C[C@H]2C[C@@H]([C@H]1C)C2(C)C` [Compound 16] was 50 µM; that for `C=Cc1ccsc1CN[C@@H]1C[C@H]2C[C@@H]([C@H]1C)C2(C)C` [Compound 17] was 50 µM; that for `C[C@H]1[C@H](NCc2sccc2C2CCCC2)C[C@H]2C[C@@H]1C2(C)C` [Compound 19] was 12.5 µM.
With `C[C@H]1[C@H](NCc2sccc2C2CCCCC2)C[C@H]2C[C@@H]1C2(C)C` [Compound 20], the “MCC (minimum cytotoxic concentration)” value was 1.56 µM.
As to `C[C@H]1[C@H](NCc2sccc2-c2ccsc2)C[C@H]2C[C@@H]1C2(C)C` [Compound 21], the “MCC (minimum cytotoxic concentration)” value stood at 12.5 µM.
Take `C[C@H]1[C@H](NCc2sccc2-c2ccccc2)C[C@H]2C[C@@H]1C2(C)C` [Compound 22]: the “MCC (minimum cytotoxic concentration)” value was determined as 12.5 µM.
Regarding `C[C@H]1[C@H](NCc2cc(Br)cs2)C[C@H]2C[C@@H]1C2(C)C` [Compound 23], the “MCC (minimum cytotoxic concentration)” value amounted to 6.25 µM.
Take `Cc1csc(CN[C@@H]2C[C@H]3C[C@@H]([C@H]2C)C3(C)C)c1` [Compound 24]: the “MCC (minimum cytotoxic concentration)” value was determined as 12.5 µM.
Consider `CCc1csc(CN[C@@H]2C[C@H]3C[C@@H]([C@H]2C)C3(C)C)c1` [Compound 25], for which the “MCC (minimum cytotoxic concentration)” value was found to be 25 µM.
`CCCc1csc(CN[C@@H]2C[C@H]3C[C@@H]([C@H]2C)C3(C)C)c1` [Compound 26]: the “MCC (minimum cytotoxic concentration)” value came out at 12.5 µM.
With `CCCCc1csc(CN[C@@H]2C[C@H]3C[C@@H]([C@H]2C)C3(C)C)c1` [Compound 27], the “MCC (minimum cytotoxic concentration)” value stood at 12.5 µM.
With `C=Cc1csc(CN[C@@H]2C[C@H]3C[C@@H]([C@H]2C)C3(C)C)c1` [Compound 28], the “MCC (minimum cytotoxic concentration)” value turned out to be 6.25 µM.
On the same count and under the same terms, the value for `C=C(C)c1csc(CN[C@@H]2C[C@H]3C[C@@H]([C@H]2C)C3(C)C)c1` [Compound 29] was 25 µM.
Still for that read-out and setting: the value for `C[C@H]1[C@H](NCc2cc(C3CC3)cs2)C[C@H]2C[C@@H]1C2(C)C` [Compound 30] was 25 µM; that for `C[C@H]1[C@H](NCc2cc(C3CCCC3)cs2)C[C@H]2C[C@@H]1C2(C)C` [Compound 31] was 1.56 µM; that for `C[C@H]1[C@H](NCc2cc(C3CCCCC3)cs2)C[C@H]2C[C@@H]1C2(C)C` [Compound 32] was 0.78 µM.
On the same count and under the same terms, the value for `C[C@H]1[C@H](NCc2cc(-c3ccsc3)cs2)C[C@H]2C[C@@H]1C2(C)C` [Compound 33] was 25 µM; that for `C[C@H]1[C@H](NCc2cc(-c3ccccc3)cs2)C[C@H]2C[C@@H]1C2(C)C` [Compound 34] was 5 µM; that for `C[C@H]1[C@H](NCc2ccc(Cl)s2)C[C@H]2C[C@@H]1C2(C)C` [Compound 35] was 25 µM.
Consider `Cc1ccc(CN[C@@H]2C[C@H]3C[C@@H]([C@H]2C)C3(C)C)s1` [Compound 36], for which the “MCC (minimum cytotoxic concentration)” value came to 0.78 µM.
Regarding `C[C@H]1[C@H](NCc2ccc(Br)s2)C[C@H]2C[C@@H]1C2(C)C` [Compound 37], the “MCC (minimum cytotoxic concentration)” value came out at 43 µM.
As for `CCc1ccc(CN[C@@H]2C[C@H]3C[C@@H]([C@H]2C)C3(C)C)s1` [Compound 38], the “MCC (minimum cytotoxic concentration)” value was found to be 1.56 µM.
For `C[C@H]1[C@H](NCc2ccc(C(C)(C)C)s2)C[C@H]2C[C@@H]1C2(C)C` [Compound 39], the “MCC (minimum cytotoxic concentration)” value is 0.78 µM.
On the same count and under the same terms, then `CSc1ccc(CN[C@@H]2C[C@H]3C[C@@H]([C@H]2C)C3(C)C)s1` [Compound 40], with 25 µM; and `C[C@H]1[C@H](NCc2ccc(-c3ccc(Br)s3)s2)C[C@H]2C[C@@H]1C2(C)C` [Compound 41], with 0.78 µM.

Another data set deals with A/Guangzhou/GIRD/07/2009 (H1N1). Briefly: microbe, parasite or virus in culture. Type of data set: cell-based. The following applies: Influenza A virus, H1N1, MDCK, 48 h, read-out: Activity (EC50, μM).
As usually defined, the EC50 is the concentration that produces a half-maximal response. As to `C[C@H]1[C@H](NCc2cncnc2)C[C@H]2C[C@@H]1C2(C)C` [Compound 1], the EC50 is above 50 µM.
The same measure, in the same setting: then `C[C@H]1[C@H](NCc2cnccn2)C[C@H]2C[C@@H]1C2(C)C` [Compound 2], with above 50 µM; and `Cc1n[nH]cc1CN[C@@H]1C[C@H]2C[C@@H]([C@H]1C)C2(C)C` [Compound 3], with above 50 µM; and `C[C@H]1[C@H](NCc2ccco2)C[C@H]2C[C@@H]1C2(C)C` [Compound 5], with above 50 µM.
Consider `C[C@H]1[C@H](NCc2nccs2)C[C@H]2C[C@@H]1C2(C)C` [Compound 8], for which the half-maximal effective concentration (EC50) is above 50 µM.
Regarding `C[C@H]1[C@H](NCc2cncs2)C[C@H]2C[C@@H]1C2(C)C` [Compound 9], the EC50 is above 50 µM.
On the same count and under the same terms, then `Cc1ccsc1CN[C@@H]1C[C@H]2C[C@@H]([C@H]1C)C2(C)C` [Compound 11], with above 0.78 µM; and `CCc1ccsc1CN[C@@H]1C[C@H]2C[C@@H]([C@H]1C)C2(C)C` [Compound 12], with above 0.78 µM; and `C[C@H]1[C@H](NCc2sccc2Br)C[C@H]2C[C@@H]1C2(C)C` [Compound 13], with above 0.78 µM.
Take `CCCc1ccsc1CN[C@@H]1C[C@H]2C[C@@H]([C@H]1C)C2(C)C` [Compound 14]: the concentration giving a half-maximal response (EC50) is above 0.78 µM.
Still for that read-out and setting: the value for `CCOc1ccsc1CN[C@@H]1C[C@H]2C[C@@H]([C@H]1C)C2(C)C` [Compound 16] was above 0.78 µM; that for `C[C@H]1[C@H](NCc2sccc2C2CCCCC2)C[C@H]2C[C@@H]1C2(C)C` [Compound 20] was above 0.78 µM.
Same read-out and setting: then `C[C@H]1[C@H](NCc2sccc2-c2ccsc2)C[C@H]2C[C@@H]1C2(C)C` [Compound 21], with above 0.78 µM; and `C[C@H]1[C@H](NCc2sccc2-c2ccccc2)C[C@H]2C[C@@H]1C2(C)C` [Compound 22], with above 0.78 µM; and `CCc1csc(CN[C@@H]2C[C@H]3C[C@@H]([C@H]2C)C3(C)C)c1` [Compound 25], with above 0.78 µM.
Take `CCCc1csc(CN[C@@H]2C[C@H]3C[C@@H]([C@H]2C)C3(C)C)c1` [Compound 26]: the EC50 is above 0.78 µM.
For the compound `C=Cc1csc(CN[C@@H]2C[C@H]3C[C@@H]([C@H]2C)C3(C)C)c1` [Compound 28], the EC50 was above 0.78 µM.
In the case of `C=C(C)c1csc(CN[C@@H]2C[C@H]3C[C@@H]([C@H]2C)C3(C)C)c1` [Compound 29], the EC50 is above 0.78 µM.
As to `C[C@H]1[C@H](NCc2cc(C3CCCC3)cs2)C[C@H]2C[C@@H]1C2(C)C` [Compound 31], the EC50 was above 0.78 µM.
Turning to `C[C@H]1[C@H](NCc2cc(C3CCCCC3)cs2)C[C@H]2C[C@@H]1C2(C)C` [Compound 32], the EC50 was above 0.78 µM.
The same measure, in the same setting: then `C[C@H]1[C@H](NCc2cc(-c3ccsc3)cs2)C[C@H]2C[C@@H]1C2(C)C` [Compound 33], with above 0.78 µM; and `C[C@H]1[C@H](NCc2cc(-c3ccccc3)cs2)C[C@H]2C[C@@H]1C2(C)C` [Compound 34], with above 0.78 µM; and `C[C@H]1[C@H](NCc2ccc(Cl)s2)C[C@H]2C[C@@H]1C2(C)C` [Compound 35], with above 0.78 µM.
Regarding `Cc1ccc(CN[C@@H]2C[C@H]3C[C@@H]([C@H]2C)C3(C)C)s1` [Compound 36], the EC50 was above 0.78 µM.
As for `C[C@H]1[C@H](NCc2ccc(Br)s2)C[C@H]2C[C@@H]1C2(C)C` [Compound 37], the EC50 was above 0.78 µM.
Turning to `CCc1ccc(CN[C@@H]2C[C@H]3C[C@@H]([C@H]2C)C3(C)C)s1` [Compound 38], the EC50 was above 0.78 µM.
Consider `C[C@H]1[C@H](NCc2ccc(C(C)(C)C)s2)C[C@H]2C[C@@H]1C2(C)C` [Compound 39], for which the EC50 was above 0.78 µM.
Take `CSc1ccc(CN[C@@H]2C[C@H]3C[C@@H]([C@H]2C)C3(C)C)s1` [Compound 40]: the EC50 was above 0.78 µM.
As to `C[C@H]1[C@H](NCc2ccc(-c3ccc(Br)s3)s2)C[C@H]2C[C@@H]1C2(C)C` [Compound 41], the EC50 is above 0.78 µM.

The test system of another data set is influenza virus (A/PR/8/34).
Assay: not given
Conditions: not given
Turning to `C[C@H]1[C@H](NCc2sccc2C2CC2)C[C@H]2C[C@@H]1C2(C)C` [Compound 18], the “inhibition of virus-induced aggregation of chicken erythrocytes” value is “did not inhibit”.
